# Laboratory results published in PubChem BioAssay (NCI).
#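 96-well plates; 48 h exposure; 5 concentrations. Endpoints by linear interpolation between flanking doses. Not reached: highest tested concentration assigned. Here, GI50 denotes the concentration required for 50% inhibition of growth. TGI marks complete inhibition of growth.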
# Experiments:
# Test in all cases: NCI anticancer screen, dose series, 48 h
# [1] = tested on: NCI/ADR-RES ovarian
# [2] = tested on: HT29 colon
# [3] = tested on: LOX IMVI melanoma
# [4] = tested on: CCRF-CEM leukemia
# [5] = tested on: NCI-H23 lung
# [6] = tested on: OVCAR-8 ovarian
# [7] = tested on: SN12C renal
# [8] = tested on: PC-3 prostate
# [9] = tested on: MALME-3M melanoma
# [10] = tested on: UO-31 renal
SMILES,TGI [1],TGI [2],TGI [3],TGI [4],TGI [5],TGI [6],TGI [7],TGI [8],TGI [9],TGI [10],GI50 [1],GI50 [2],GI50 [3],GI50 [5],GI50 [6],GI50 [7],GI50 [8],GI50 [9],GI50 [10]
COc1cc([C@@H]2c3cc(O)c(OC)cc3C=C(C(N)=O)[C@H]2C(N)=O)ccc1O,> 100 µM,> 100 µM,> 100 µM,> 100 µM,> 100 µM,> 100 µM,> 100 µM,> 100 µM,> 100 µM,> 100 µM,–,–,–,–,–,–,–,–,–
CSCCC(NC(=O)Cc1ccc(C(=O)c2ccccc2)cc1)C(=O)O (centres undefined),> 100 µM,> 100 µM,> 100 µM,> 100 µM,> 100 µM,> 100 µM,> 100 µM,> 100 µM,> 100 µM,> 100 µM,–,–,–,–,–,–,–,–,–
CC1OC(OC2C(OC(=O)[C@@H]3CC(C)(C)C[C@H]4C5=CC[C@@H]6[C@@]7(C)C[C@H](O)[C@H](OC8OC(CO)C(O)C(O)C8O)[C@@](C)(CO)[C@@H]7[C@H](O)C[C@@]6(C)[C@]5(C)CC[C@@]34C)OCC(O)C2O)C(O)C(O)C1O (some centres undefined),> 7.5 µM,> 7.5 µM,> 7.5 µM,> 7.5 µM,> 7.5 µM,> 7.5 µM,> 7.5 µM,> 7.5 µM,> 7.5 µM,> 7.5 µM,–,–,–,–,–,–,–,–,–
COC(=O)c1cnn2c1n[n+]([O-])c1ccccc12,> 100 µM,> 100 µM,> 100 µM,> 100 µM,> 100 µM,> 100 µM,> 100 µM,> 100 µM,> 100 µM,> 100 µM,–,–,–,–,–,–,–,–,–
COC(=O)c1c(O)ccc2c1C1(Cc3ccccc3C1=O)C(O)O2 (centres undefined),> 100 µM,> 100 µM,> 100 µM,11.7 µM,> 100 µM,36.7 µM,86.2 µM,92.2 µM,71.4 µM,85 µM,–,–,–,–,–,–,–,–,–
Cc1n[nH]c(=O)n1/N=C/c1ccc([N+](=O)[O-])o1,70.3 µM,30.1 µM,27.1 µM,> 100 µM,32.4 µM,34.6 µM,14.4 µM,> 100 µM,15.5 µM,30.2 µM,–,–,–,–,–,–,–,–,–
CC1OC(O[C@H]2/C=C/C=C/C=C/C=C/C=C/C=C/C=C/[C@H](C)[C@@H](O)[C@@H](C)[C@H](C)OC(=O)CC(O)CC(O)CCC(O)C(O)CC(O)C[C@]3(O)C[C@H](O)C(C(=O)O)C(C2)O3)C(O)[C@H](N)C1O (some centres undefined),5.16 µM,14.7 µM,3.6 µM,> 100 µM,5.36 µM,9.86 µM,2.99 µM,3.92 µM,3.68 µM,2.76 µM,2.1 µM,4.3 µM,1.79 µM,2.11 µM,2.9 µM,1.58 µM,1.81 µM,1.88 µM,1.4 µM
O=C(O)CNC(=O)c1c2ccccc2nc2ccccc12,> 100 µM,> 100 µM,> 100 µM,> 100 µM,> 100 µM,> 100 µM,> 100 µM,> 100 µM,> 100 µM,> 100 µM,–,–,–,–,–,–,–,–,–
OC1(c2ccccc2)CSC2=Nc3ccccc3C3CCN1N23 (centres undefined),63.9 µM,33.8 µM,36.9 µM,94.1 µM,79.2 µM,43.5 µM,40.1 µM,29.5 µM,81.7 µM,28.7 µM,–,–,–,–,–,–,–,–,–
Nc1nc(Cl)c(N)c(NCC2(CO)CC(CCCc3ccccc3)C2)n1 (centres undefined),63.1 µM,> 22.8 µM,98.7 µM,7.16 µM,> 84.4 µM,> 100 µM,> 100 µM,> 91.5 µM,9.92 µM,> 100 µM,–,–,–,–,–,–,–,–,–
CC(C)[C@@H]1ON1C(C)c1ccccc1 (some centres undefined),> 100 µM,> 100 µM,> 100 µM,> 100 µM,> 100 µM,> 100 µM,> 100 µM,> 100 µM,> 100 µM,> 100 µM,–,–,–,–,–,–,–,–,–
OC(c1ccc(-c2ccccc2)cc1)C(F)(F)c1nc2ccccc2o1 (centres undefined),> 100 µM,> 100 µM,> 100 µM,> 100 µM,> 100 µM,> 93.1 µM,> 100 µM,> 100 µM,> 100 µM,> 100 µM,–,–,–,–,–,–,–,–,–
CCOC(=O)CSc1nnc(C(Sc2nc(-c3ccccc3)c(-c3ccccc3)[nH]2)C(C)C)n1-c1ccccc1 (centres undefined),84 µM,19.4 µM,19.9 µM,28.4 µM,> 10 µM,> 31.6 µM,26.1 µM,> 100 µM,28.3 µM,> 31.6 µM,–,–,–,–,–,–,–,–,–
CCC(c1c[nH]c2ccc(Br)cc12)c1c[nH]c2ccc(Br)cc12,13.3 µM,10.4 µM,6.66 µM,13.7 µM,11 µM,21.2 µM,15.4 µM,17.1 µM,24.9 µM,18.7 µM,–,–,–,–,–,–,–,–,–
CN(CCCNC(=O)c1nn(-c2ccc(Cl)cc2Cl)c2c1Cc1ccccc1-2)CCCNC(=O)c1nn(-c2ccc(Cl)cc2Cl)c2c1Cc1ccccc1-2,3.55 µM,3.42 µM,3.26 µM,2.97 µM,3.48 µM,3.46 µM,3.04 µM,3.11 µM,3.35 µM,3.59 µM,–,–,–,–,–,–,–,–,–
c1ccc(CSCCc2ccncc2)cc1,> 100 µM,> 100 µM,> 100 µM,> 100 µM,> 100 µM,> 100 µM,> 100 µM,> 100 µM,> 100 µM,> 100 µM,–,–,–,–,–,–,–,–,–
O=C(CSC1=NCCN1)Nc1ccccc1,73.6 µM,> 100 µM,39.2 µM,> 100 µM,> 100 µM,> 100 µM,41.1 µM,52.6 µM,60 µM,> 100 µM,–,–,–,–,–,–,–,–,–
O=C1NC(=S)N(c2ccccc2)C1=O,> 100 µM,> 100 µM,> 100 µM,> 100 µM,> 100 µM,> 100 µM,> 100 µM,> 100 µM,> 100 µM,> 100 µM,–,–,–,–,–,–,–,–,–
CCN(CC)CCNCc1cc(Cl)cc2c1OCOC2,> 10 µM,> 10 µM,> 10 µM,> 10 µM,> 10 µM,> 10 µM,> 10 µM,> 10 µM,> 10 µM,> 10 µM,–,–,–,–,–,–,–,–,–
Nc1ccc(CCN2CCN(CCCc3ccccc3)CC2)cc1,> 100 µM,> 100 µM,> 100 µM,> 100 µM,> 100 µM,> 100 µM,> 100 µM,> 100 µM,> 100 µM,> 100 µM,–,–,–,–,–,–,–,–,–
COC(=O)C1=C(OC(=O)c2ccccc2)C(C(=O)OC)[C@]2(O)[C@@H](C(=O)OC)[C@H]1C[C@@H](c1ccccc1)[C@@H]2C(=O)OC (some centres undefined),14.1 µM,30.7 µM,26.7 µM,10.6 µM,32.7 µM,20.3 µM,43.2 µM,23.7 µM,52.1 µM,10.1 µM,–,–,–,–,–,–,–,–,–
O=C(/C=C/c1csc(-c2ccccc2)n1)NCc1ccc(C(=O)NCc2ccccc2)cc1,> 100 µM,> 100 µM,> 100 µM,> 100 µM,> 100 µM,> 100 µM,> 100 µM,> 100 µM,> 100 µM,> 100 µM,–,–,–,–,–,–,–,–,–
CC(C)=C/C=C1/CS(=O)(=O)C=C1C,> 100 µM,> 100 µM,> 100 µM,> 100 µM,> 100 µM,> 100 µM,> 100 µM,> 100 µM,> 100 µM,> 100 µM,–,–,–,–,–,–,–,–,–
